Laboratory results published in patent US20150079206A1, “TRIGONELLINE AS A MUSCLE STIMULANT” (DSM IP ASSETS B.V., priority 2009, published 2015).

Tested on: Female C57B1/6 mice
Assay: Maximal endurance test (treadmill) in non-trained animals
Format: in vivo, mouse
Method: To test the effect of trigonelline in non-trained animals, we performed a maximal endurance test after a treatment period of three weeks.
Female C57B1/6 mice were delivered at a weight of 18-20 g and acclimatized to the facilities for a period of one week. At the beginning of the study the animals were randomized into two groups (10 animals per group). All mice were housed separately and had access to feed and water ad libidum. Animals were treated for three weeks by gavage with trigonelline-hydrochloride at a daily dosage of 300 mg/kg/BW and the control group received vehicle.
For acclimatization, animals were placed on the treadmill for 5 minutes after two weeks. The maximal endurance test was performed two day before the section of the animals.

Compound: C[n+]1cccc(C(=O)[O-])c1 [Trigonelline, trigonelline monohydrate]
- skeletal muscle mass in untrained mice (in words) (3 weeks of supplementation): no effect
- endurance of untrained animals (in words) (3 weeks of supplementation, monohydrate): not influenced
- wet weight of the gastrocnemius muscle, treated vs control (in words) (untrained mice, three weeks of supplementation, FIG. 4): equal in both groups
